This is an account of results in patent US20070184175A1, “CONTINUOUS PRODUCTION OF CEREAL FLOUR AND WHOLE-CEREAL FLOUR FOR GRAIN-BASED FOODS, USING A LOW-MOISTURE PRECOOKING” (priority 2005, published 2007).

For data set [1] the following is noted: Davalos et al. (2004); cited from earlier work.
For data set [2] the following is noted: concentration of Trolox solution with equivalent antioxidant capacity to a 1 mM concentration of the compound; cited from earlier work.
Details of data set [3]: concentration or dose not given beside the values. The conditions noted are these: Kikuzaki et al. (2002); cited from earlier work.
A short description of data set [4]: ABTS radical scavenging assay. It is filed as biochemical. The conditions noted are these: Intasa-Chromadex analytical test report, 2006; gallic as positive-control. The protocol:
Kikuzaki et al. (2002) previously published the DPPH radical-scavenging and increasing inhibition effects of ferulic, oryzanol (steryl-ferulate), BHT, α-tocopherol (Trolox) and gallic acid (27%<21%<29%<42%<76%). A TEAC test was defined as the concentration of Trolox solution with equivalent antioxidant capacity to a 1 mM concentration of the compound (Rice-Evans et al. 1996). Similar increasing values were found for α-tocopherol (Trolox), caffeic, ferulic and gallic acid (1.0<1.3<1.9<3.0). It also reflects the ability of hydrogen-donating antioxidants to scavenge the ABTS-radical). However, Davalos et al. (2004) used a different ORAC-FL (Oxygen radical absorbance capacity) test which described the μmol trolox equivalents per μmol of pure compound: BHA (synthetic), ferulic and protocatechuic (similar to gallic) with increasing values of 2.4, 4.5 and 6.7, respectively. This latter assay has been largely applied to assess free radical scavenging capacity of human plasma, proteins, DNA, pure antioxidant compounds and new antioxidants from plant and food extracts (Prior et al. 1999).

The conditions of data set [5]: ingestion or topical applications; cited from earlier work.

Take `COc1ccc(O)c(C(C)(C)C)c1` [BHA]: the ORAC-FL in data set [1] is 2.4 μmol trolox equivalents per μmol of pure compound.

For `O=C(O)c1ccc(O)c(O)c1` [protocatechuic], the ORAC-FL in data set [1] was 6.7 μmol trolox equivalents per μmol of pure compound.

As to `O=C(O)/C=C/c1ccc(O)c(O)c1` [caffeic], in data set [2], the TEAC was 1.3.

oryzanol: in data set [3], the “DPPH radical-scavenging inhibition effect” value was 21%.

Regarding `Cc1c(C)c2c(c(C)c1O)CC[C@@](C)(CCC[C@H](C)CCC[C@H](C)CCCC(C)C)O2` [α-tocopherol (Trolox), α-tocopherol], the TEAC in data set [2] is on record as 1.0. Besides, the “DPPH radical-scavenging inhibition effect” value in data set [3] is 42%.

`COc1cc(/C=C/C(=O)O)ccc1O` [ferulic, ferulic acid]: in data set [1], the ORAC-FL is given as 4.5 μmol trolox equivalents per μmol of pure compound. Also, the TEAC in data set [2] is recorded as 1.9. Besides, the “DPPH radical-scavenging inhibition effect” value in data set [3] is given as 27%. Further, in data set [4], the “IC50 or 50% inhibition value, ABTS radical scavenging” value is given as 3.3 ppm. Also, the “acute or chronic side effects” value in data set [5] was “No acute or chronic side effects”.

Regarding `Cc1cc(C(C)(C)C)c(O)c(C(C)(C)C)c1` [BHT], in data set [3], the “DPPH radical-scavenging inhibition effect” value is recorded as 29%.

On to `O=C(O)c1cc(O)c(O)c(O)c1` [gallic, gallic acid], for which the TEAC in data set [2] is recorded as 3.0. Moreover, the “DPPH radical-scavenging inhibition effect” value in data set [3] is on record as 76%. For the same compound, the “IC50 or 50% inhibition value, ABTS radical scavenging” value in data set [4] was 1.5 ppm.
